Columns and labels:
[1] = system: Primary human neutrophils; test: MTT survival assay of neutrophils cultured with GM-CSF, with or without gliotoxin; assay type: cell-based; conditions: various amounts of GM-CSF, 18 h culture
Experimental: Primary human neutrophils are isolated and purified from peripheral blood of normal healthy individuals. Neutrophils are resuspended in serum containing culture medium together with various amounts of GM-CSF at a density of 2×10^6/ml, with 100 μl plated into a 96 well plate and cultured for 18 h at 37° C. After this time 10 μl of MTT (5 mg/ml) is added to the cultures and incubated for a further 4 h at 37° C. before solubilisation of the purple coloured formazan with acidic isopropanol. Optical densities are read at 570 nm using a plate reader.
Primary human neutrophils are isolated and purified from peripheral blood of normal healthy individuals. Neutrophils are resuspended in serum containing culture medium containing 5 U/ml of GM-CSF at a concentration of 2×10^6/ml. […] After the indicated time, 10 μl of MTT (5 mg/ml) are added to the cultures and incubated for a further 4 h at 37° C. before solubilisation of the purple coloured formazan with acidic isopropanol. Optical densities are read at 570 nm using a plate reader.

[2] = system: survivin; test: Immunoblotting of survivin protein in neutrophils; assay type: cell-based, human; conditions: cultured for 12 h in the presence of cytokine
Experimental: (§1) Neutrophils are cultured at 1×10^6 per ml in complete culture medium. GM-CSF (50 ng/ml; kind gift of T. Hartung, University of Konstanz, Konstanz, Germany) or G-CSF (25 ng/ml; PeproTech, BioConcept, Allschwil, Switzerland) are added. The duration of GM-CSF or G-CSF stimulation is indicated in each experiment.
Neutrophils (5×10^6) are washed with PBS, lysed with RIPA-buffer (0.5% sodium deoxycholate, 1% Nonidet P-40, 0.1% SDS in PBS) supplemented with a protease inhibitor-cocktail (Sigma) with frequent vortexing on ice for 40 min, including two freeze/thaw cycles using a methanol/dry ice bath. After a 10-min centrifugation to remove insoluble particles, equal amounts of the cell lysates are loaded on NuPage-Gels (Invitrogen Corp., Groningen, Netherlands). Separated proteins are electrotransferred onto polyvinylidene difluoride (PVDF) membranes (Immobilion-P, Millipore, Bedford, Mass.). The filters are incubated overnight with a polyclonal anti-survivin antibody (1/1000; R&D Systems, Abingdon, UK) at 4° C. in TBS/0.1% Tween-20/3% non-fat dry milk. Purified full-length recombinant human survivin (2 μl) is provided by R&D Systems as positive control for anti-survivin immunoblotting. For loading controls, stripped filters are incubated with a monoclonal anti-β-actin antibody (1/10,000; Sigma). Filters are washed in TBS/0.1% Tween-20 for 30 min and incubated with the appropriate HRP-conjugated secondary antibody (Amersham Pharmacia Biotech, Dübendorf, Switzerland) in TBS/0.1% Tween-20/5% non-fat dry milk for 1 h. Filters are developed by an ECL-technique (ECL-Kit, Amersham Pharmacia Biotech) according to the manufacturer's instructions.
(§2) The 20-mer first generation antisense oligonucleotide 4003 targeting the survivin mRNA has been described above. The second generation 2′-O-methoxy-ethoxy (2′-MOE) gapmer version of 4003 (as) and its 3-base mismatch sequence control (ms) are synthesized using an Applied Biosystems 394B automated DNA synthesizer as described (De Mesaeker et al. (1995) Acc. Chem. Res. 28, 366-374). Sequences are as follows: antisense survivin, cscscsasgsCsCsTsTsCsCsAsGsCsTscscststsg; mismatch survivin, cscstsasgsCsCsTsTsCsCsAsGsGsTscscstsasg. Small letters refer to 2′-O-(2-methoxy)-ethyl-modified nucleotides, capital letters to DNA, and “s” refers to phosphorothioate linkages. Cells isolated and cultured as described above are treated with survivin antisense oligonucleotides (as) or survivin mismatch control oligonucleotides (ms) at the indicated concentrations. In the experiments in which GM-CSF (50 ng/ml; kind gift of T. Hartung, University of Konstanz, Konstanz, Germany) or G-CSF (25 ng/ml; PeproTech, BioConcept, Allschwil, Switzerland) are added, the oligonucleotides are given 2 h before addition of cytokines.

[3] = system: Survivin mRNA; test: Real-time PCR quantification of survivin mRNA in neutrophils; assay type: cell-based, human; conditions: cytokine added in vitro; A549 standard = 100%
Experimental: as §1
Neutrophils (1×10^7) are washed with PBS and the RNA is isolated according to the RNeasy protocol (Qiagen AG, Basel, Switzerland), which includes DNase digestion. RNA is reverse transcribed with the first strand cDNA synthesis kit (Amersham Pharmacia Biotech) by using random hexanucleotides according to the manufacturer's instructions. Real-time monitoring of PCR amplification of survivin cDNA is performed with a 1/100 dilution of neutrophil cDNA as previously described (Olie et al. (2000) Cancer Research 60, 2805-2809). Relative quantification of survivin expression is performed as described (Olie et al. (2000) Cancer Research 60, 2805-2809) utilizing rRNA as an internal standard.
as §2

[4] = system: Neutrophils; test: Neutrophil apoptosis by oligonucleosomal DNA fragments after 2-MOE oligonucleotides; assay type: cell-based, human; conditions: cytokine alone
Experimental: Neutrophil apoptosis is assessed by oligonucleosomal DNA fragmentation (Dibbert et al.(1999) Proc. Natl. Acad. Sci. USA 96, 13330-13335; Hebestreit et al. (1998), J. Exp. Med. 187, 415-425) according to Nicoletti et al. ((1991) J. Immunol. Meth. 139, 271-279). Briefly, cells are resuspended in hypotonic fluorochrome solution containing 50 μg/ml propidium iodide (Sigma Buchs, Switzerland), 0.1% sodium citrate (Sigma) and 0.1% (vol/vol) Triton-X 100 (Sigma), incubated at 4° C. for 10 h, and analyzed by flow cytometry (FACScan, Becton Dickinson, Heidelberg, Germany).
as §2
Values are means ±S.E.M. of four independent experiments. *, p<0.05; **, p<0.01; ***, p<0.001.

Substance: Granulocyte macrophage colony-stimulating factor [GM-CSF]
- neutrophil survival (MTT, optical density at 570 nm) [1]: direct correlation between survival and concentrations of GM-CSF
- Levels of survivin (immunoblot) in normal control neutrophils [2]: increased
- survivin mRNA in normal control neutrophils after cytokine addition [3]: increase in survivin mRNA
- DNA-fragmentation of neutrophils with cytokine [4]: prevent DNA-fragmentation

— patent US20060160095A1, “Survivin” (EiRx Therapeutics Limited, priority 2002, published 2006)
